Assay results published in US7094802B2, “PKB-3564 substance with neovascularization inhibitory activity” (Riken, priority 2001, dated 2006).
Converted amounts (≈) assume the structure as drawn.

Assays:
Jurkat cells = test: Suppression of Fas antibody-induced apoptosis, survival rate by MTT method; assay type: cell-based; conditions: Homo sapiens, Fas antibody CH-11 100 ng/ml, 6 hours, read-out: concentration that inhibited 50% of apoptosis induced by Fas antibody
Method: Jurkat cells, an […] T cell leukemia cell line expressing Fas, were used as Fas antibody sensitive cells. The Jurkat cells were cultured in a RPMI medium containing 10% calf serum in an incubator that contained 5% carbon dioxide and was saturated with stream. The Jurkat cells in the logarithmic proliferation period were added with RKB-3564A, RKB-3564B, RKB-3564D, RKB-3564E, and RKB-3564F in a series of dilution, and cultured in the presence of Fas antibody, CH-11 (Medical & Biological Laboratories Co., Ltd., 100 ng/ml) for 6 hours, and the survival rate of the cells was assayed by the MTT method. The survival rate was calculated according to the following formula. Survival rate (%)={[(absorbance in the presence of anti-Fas antibody and the compound)−(absorbance in the presence of anti-Fas antibody and in the absence of the compound)]/[(absorbance in the absence of anti-Fas antibody and the compound)−(absorbance in the presence of anti-Fas antibody and in the absence of the compound)]}×100

| Structure (SMILES) | IC50 (Jurkat cells) [µg/mL] | Solubility in methanol or dimethyl sulfoxide (Solubility in solvents; methanol or dimethyl sulfoxide) | Solubility in n-hexane (Solubility in solvents; n-hexane) |
| --- | --- | --- | --- |
| CC1OC2C3=C(C(=O)C4OC4C3O)C1C1C(C)OC=C3C(O)C4OC4C(=O)C321 (single isomer, unassigned) [RKB-3564A] | 3 to 10 (≈ 7.72 to 25.7 µM) |  |  |
| CC1OC2C3=C(C(=O)C4OC4C3O)C1C1C3=C(C(O)C4OC4C3=O)C2OC1C (centres unmarked) [RKB-3564D] | 3 to 10 (≈ 7.72 to 25.7 µM) | easily soluble | Insoluble |
| CC1OC2C3=C(C(=O)C4OC4C3O)C1C1C(C)OC=C3C(O)C4OC4C(=O)C321 (centres unmarked) [RKB-3564E] | 3 to 10 (≈ 7.72 to 25.7 µM) |  |  |
